According to patent US8569301B2, “6, 6-dioxo-6-thia-1, 4-diaza-naphthalenes as herbicides” (Syngenta Limited, priority 2009, dated 2013):

Experiments:
Format in all cases: in vivo
Details in all cases: sprayed after 8 days cultivation, evaluated after 13 days, scores from 10 to 0 (10=total damage to plant; 0=no damage to plant)
SOLNI = test: Example B1 herbicidal action post-emergence, SOLNI
Experimental: (§1) Seeds of a variety of test species were sown in standard soil in pots. After 8 days cultivation (post-emergence) under controlled conditions in a glasshouse (at 24/16° C., day/night; 14 hours light; 65% humidity), the plants were sprayed with an aqueous spray solution derived from the formulation of the technical active ingredient in acetone/water (50:50) solution containing 0.5% Tween 20 (polyoxyethelyene sorbitan monolaurate, CAS RN 9005-64-5). The test plants were then grown under controlled conditions in a glasshouse (at 24/16° C., day/night; 14 hours light; 65% humidity) and watered twice daily. After 13 days, the test was evaluated and the assessed scores, from 10 to 0, are tabulated in Table B1 (10=total damage to plant; 0=no damage to plant).

ECHCG = test: Example B1 herbicidal action post-emergence, ECHCG
Experimental: as §1

AMARE = test: Example B1 herbicidal action post-emergence, AMARE
Experimental: as §1

IPOHE = test: Example B1 herbicidal action post-emergence, IPOHE
Experimental: as §1

SETFA = test: Example B1 herbicidal action post-emergence, SETFA
Experimental: as §1

Row | Compound | assessed score, application post-emergence, SOLNI (SOLNI; Rate 1000 g/ha) | assessed score, application post-emergence, ECHCG (ECHCG; Rate 1000 g/ha) | assessed score, application post-emergence, AMARE (AMARE; Rate 1000 g/ha) | assessed score, application post-emergence, IPOHE (IPOHE; Rate 1000 g/ha) | assessed score, application post-emergence, SETFA (SETFA; Rate 1000 g/ha) | assessed score, application post-emergence, SOLNI (SOLNI; Rate 250 g/ha) | assessed score, application post-emergence, ECHCG (ECHCG; Rate 250 g/ha) | assessed score, application post-emergence, AMARE (AMARE; Rate 250 g/ha) | assessed score, application post-emergence, IPOHE (IPOHE; Rate 250 g/ha) | assessed score, application post-emergence, SETFA (SETFA; Rate 250 g/ha)
1 | CCC1c2nccnc2C(O)=C(c2c(Cl)cccc2C(F)(F)F)S1(=O)=O (centres unmarked) [Compound E1, 7-(2-chloro-6-trifluoromethyl-phenyl)-5-ethyl-6,6-dioxo-5,6-dihydro-6-thia-1,4-diaza-naphthalen-8-ol] | 9 | 7 | 9 | 7 | 8 | – | – | – | – | –
2 | CC#CCC1c2nccnc2C(O)=C(c2c(F)ccc(Br)c2Cl)S1(=O)=O (centres unmarked) [Compound E21] | 9 | 7 | 6 | 8 | 4 | – | – | – | – | –
3 | O=S1(=O)Cc2nccnc2C(O)=C1c1c(Cl)cc(Cl)cc1Cl [Compound C23] | 9 | 8 | 8 | 8 | 7 | – | – | – | – | –
4 | CC1(C)c2nccnc2C(O)=C(c2cc(Cl)ccc2C(F)(F)F)S1(=O)=O [Compound F5] | 10 | 8 | 10 | 9 | 6 | – | – | – | – | –
5 | CCC1c2nccnc2C(O)=C(c2c(F)ccc(Br)c2Cl)S1(=O)=O (centres unmarked) [Compound E10] | – | – | – | – | – | 7 | 4 | 7 | 8 | 7
6 | Cc1cc(C)c(C2=C(O)c3nccnc3C(C)S2(=O)=O)c(C)c1 (centres unmarked) [Compound E19] | 8 | 5 | 3 | 7 | 5 | – | – | – | – | –
7 | CC(C)C(=O)OC1=C(c2c(F)ccc(Br)c2Cl)S(=O)(=O)Cc2nccnc21 [Compound X2, isobutyric acid 7-(3-bromo-2-chloro-6-fluoro-phenyl)-6,6-dioxo-5,6-dihydro-6-thia-1,4-diaza-naphthalen-8-yl ester] | 10 | 8 | 10 | 8 | 8 | – | – | – | – | –
8 | O=S1(=O)C(c2cc(Cl)ccc2C(F)(F)F)=C(O)c2nccnc2C12CC2 [Compound F11, 7-(5-chloro-2-trifluoromethyl-phenyl)-5,5-cyclopropyl-6,6-dioxo-5,6-dihydro-6-thia-1,4-diaza-naphthalen-8-ol] | 7 | 3 | 6 | 7 | 2 | – | – | – | – | –
9 | O=S1(=O)Cc2nccnc2C(O)=C1c1ccccc1C(F)(F)F [Compound C11] | 7 | 5 | 7 | 5 | 7 | – | – | – | – | –
10 | O=S1(=O)C(c2c(F)ccc(Br)c2Cl)=C(O)c2nccnc2C1Cc1ccccc1 (centres unmarked) [Compound E23] | 8 | 8 | 6 | 6 | 4 | – | – | – | – | –
11 | O=S1(=O)Cc2nccnc2C(O)=C1c1c(Cl)ccc(Cl)c1Cl [Compound C18] | 8 | 8 | 7 | 8 | 8 | – | – | – | – | –
12 | O=S1(=O)Cc2nccnc2C(O)=C1c1cccc(F)c1C(F)(F)F [Compound C10] | 8 | 5 | 6 | 6 | 6 | – | – | – | – | –
13 | O=S1(=O)Cc2nccnc2C(O)=C1c1cc(F)ccc1Cl [Compound C15] | 8 | 5 | 7 | 3 | 6 | – | – | – | – | –
14 | O=S1(=O)C(c2c(F)ccc(Br)c2Cl)=C(O)c2nccnc2C1Cc1ccc(Cl)s1 (centres unmarked) [Compound E24] | 7 | 0 | 6 | 5 | 0 | – | – | – | – | –
15 | Cc1cc(C)c(C2=C(O)c3nccnc3CS2(=O)=O)c(C)c1 [Compound C20] | 7 | 4 | 1 | 7 | 4 | – | – | – | – | –
16 | O=S1(=O)Cc2nccnc2C(O)=C1c1cc(Cl)ccc1C(F)(F)F [Compound C7, 7-(5-chloro-2-trifluoromethyl-phenyl)-6,6-dioxo-5,6-dihydro-6-thia-1,4-diaza-naphthalen-8-ol] | 8 | 6 | 8 | 7 | 8 | – | – | – | – | –
17 | Cc1cc(C)c(C2=C(O)c3nccnc3C(CC(F)F)S2(=O)=O)c(C)c1 (centres unmarked) [Compound E17] | 7 | 10 | 10 | 7 | 10 | – | – | – | – | –
18 | O=S1(=O)Cc2nccnc2C(O)=C1c1c(F)cccc1C(F)(F)F [Compound C6] | 3 | 1 | 4 | 0 | 2 | – | – | – | – | –
19 | CCC1c2nccnc2C(O)=C(c2ccc(Br)cc2C(F)(F)F)S1(=O)=O (centres unmarked) [Compound E14] | 10 | 7 | 9 | 7 | 6 | – | – | – | – | –
20 | O=S1(=O)Cc2nccnc2C(O)=C1c1ccccc1OC(F)F [Compound C9] | 4 | 3 | 6 | 1 | 7 | – | – | – | – | –
21 | O=S1(=O)Cc2nccnc2C(O)=C1c1ccccc1I [Compound C14] | 7 | 7 | 8 | 8 | 7 | – | – | – | – | –
22 | O=S1(=O)Cc2nccnc2C(O)=C1c1c(F)ccc(Br)c1Cl [Compound C21, 7-(3-bromo-2-chloro-6-fluoro-phenyl)-6,6-dioxo-5,6-dihydro-6-thia-1,4-diaza-naphthalen-8-ol] | 10 | 7 | 9 | 8 | 7 | – | – | – | – | –
